Test results published in patent publication US9839701B2, “Aromatic amino acid derivative and positron emission topography (PET) probe using the same” (OSAKA UNIVERSITY, priority 2013, dated 2017).

Legend:
human LAT1 = target: T1, human LAT1 (Homo sapiens, UniProt Q01650); assay: Promoting effect on amino acid efflux from human LAT1 stably expressing cell line; type: cell-based
T1 construct: expressed in transfected cells
Experimental: In the same manner as in Example 3, the human LAT1 stably expressing cell line and the human LAT2 stably expressing cell line were seeded on separate collagen-coated 24-well plates, and after 48 hours, the cells were washed with an uptake buffer prewarmed at 37° C. An uptake buffer supplemented with 1 μM of [^14C]L-leucine or [^14C]L-alanine was added to each well, and [^14C]L-leucine or [^14C]L-alanine uptake by the cells was allowed to proceed at 37° C. for 10 minutes. […] The radioactivity in each supernatant was measured as the radioactivity of the amino acid released from the cells. Subsequently, 500 μL of 0.1 M NaOH was added to each well for cell lysis, 20 μL of the lysate was used for the measurement of the protein concentration, and the remaining lysate was used for the measurement of the residual radioactivity in the cells. The sum of the residual radioactivity and the released radioactivity in each experiment was checked to confirm that there was no great difference in the total radioactivity incorporated into the cells at the preloading among the experiments. […]
Based on the measured values of amino acid efflux at the indicated concentrations of each compound, the Km value for amino acid efflux from the human LAT1 stably expressing cell line and the Km value for amino acid efflux from the human LAT2 stably expressing cell line were calculated and shown in Table 5. […]

[1] = system: tumor derived from human pancreatic carcinoma cell line MIAPaCa-2; assay: Accumulation in subcutaneous tumor of nude mouse, HPLC detection after PITC labeling; type: in vivo; conditions: 100 nmol via tail vein, tumor excised 1 hour after administration, FIG. 3
Experimental: A tumor derived from subcutaneously implanted MIAPaCa-2 cells in a nude mouse was excised, and 0.1 g of the tumor was subcutaneously transplanted into a 6-week-old female nude mouse (BALB/cAJc1-nu). One month after the transplantation, the compound of Example 1 was dissolved in physiological saline at a concentration of 1 mM, and 0.1 mL (100 nmol) of the solution or 0.1 mL of physiological saline was administered from the tail vein. One hour after the administration, the tumor was excised, the amino acids in the tumor tissue were labeled with phenylisothiocyanate (PITC), and the labeled compound was detected by HPLC for evaluation of the accumulation.

T1 sequence (Q01650 whole entry): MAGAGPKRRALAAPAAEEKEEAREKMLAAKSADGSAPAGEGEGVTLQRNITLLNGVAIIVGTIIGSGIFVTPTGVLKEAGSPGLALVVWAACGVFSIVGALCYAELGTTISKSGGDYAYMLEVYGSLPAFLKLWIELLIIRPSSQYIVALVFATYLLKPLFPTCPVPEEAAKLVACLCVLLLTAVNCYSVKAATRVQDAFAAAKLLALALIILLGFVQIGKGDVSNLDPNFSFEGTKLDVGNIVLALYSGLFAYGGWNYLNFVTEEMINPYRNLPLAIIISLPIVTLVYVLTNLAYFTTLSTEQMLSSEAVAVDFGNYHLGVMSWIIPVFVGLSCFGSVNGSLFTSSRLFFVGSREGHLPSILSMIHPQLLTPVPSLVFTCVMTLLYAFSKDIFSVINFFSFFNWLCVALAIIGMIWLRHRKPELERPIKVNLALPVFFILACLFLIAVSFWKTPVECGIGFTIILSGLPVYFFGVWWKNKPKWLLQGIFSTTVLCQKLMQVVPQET
T1 sequence (P08195 102-630 partner): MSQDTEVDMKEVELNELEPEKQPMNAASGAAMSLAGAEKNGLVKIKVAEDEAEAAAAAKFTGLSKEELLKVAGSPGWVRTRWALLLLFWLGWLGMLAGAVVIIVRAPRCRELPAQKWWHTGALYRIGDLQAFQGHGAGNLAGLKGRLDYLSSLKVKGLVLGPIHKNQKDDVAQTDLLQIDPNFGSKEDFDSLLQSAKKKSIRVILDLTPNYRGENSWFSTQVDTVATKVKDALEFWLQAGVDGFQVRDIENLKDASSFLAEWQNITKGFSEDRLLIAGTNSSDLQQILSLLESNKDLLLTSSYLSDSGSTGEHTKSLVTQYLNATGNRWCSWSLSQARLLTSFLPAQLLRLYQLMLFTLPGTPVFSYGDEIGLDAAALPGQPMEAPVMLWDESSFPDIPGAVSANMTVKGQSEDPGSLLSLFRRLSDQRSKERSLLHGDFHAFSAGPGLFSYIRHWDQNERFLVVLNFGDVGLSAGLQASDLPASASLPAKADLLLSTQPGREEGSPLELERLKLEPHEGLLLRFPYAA

- Promoting effect on amino acid efflux via human LAT1, compared with FAMT (human LAT1; 10 μM, 1 min, FIG. 2): twice or more higher than that of FAMT
- Affinity for human LAT1 relative to FAMT (human LAT1; from Km values): ≥ 10 times
- Accumulation in tumor [1]: accumulated intensively in the tumor
SMILES: NC(Cc1cc(OCCF)ccc1I)C(=O)O (stereo not drawn) [Example 1, 2-amino-3-(5-(2-fluoroethoxy)-2-iodophenyl)propanoic acid]
